Source: patent publication US20080187927A1, “USING HUG1 PROMOTER AND A REPORTER GENE TO DETECT GENOTOXICITY AND GENOPROTECTION” (priority 2006, published 2008)
Counter-ions that a name gives are not always drawn. Like-named read-outs stand apart in the source and are kept apart here.

Columns and labels:
[1] = tested on: SPY1101 (HUG1P-GFP)
Excerpt: Yeast having a HUG1-GFP promoter/reporter construct (called SPY1101; genotype is W303 MA:Ta/a ura3-52/ura3-52 his3::hisG/his3::hisG leu2::hisG/leu2::hisG HUG1P-GFP::HIS3/HUG1P-HUG1) were derived from S. cerevisiae strain SPY810 (wild-type yeast; genotype is W303 MATa/a ura3-52/ura3-52 his3::hisG/his3::hisG/leu2::hisG/leu2::hisG) using a PCR-based gene deletion method. Longtine M, et al., “Additional modules for versatile and economical PCR-based gene deletion and modification in Saccharomyces cerevisiae,” Yeast 14:953-961 (1998), incorporated herein by reference as if set forth in its entirety. Briefly, plasmid pFA6a-GFP(S65T)-His3MX6 (kindly provided by John Pringle at The University of North Carolina at Chapel Hill (Chapel Hill, N.C.); see also, Longtine et al., supra.), which contains GFP-S65T, was isolated from Escherichia coli DHα with a QIAprep Spin Miniprep Kit (Qiagen; Santa Clarita, Calif.).
Yeast from Example 1 (SPY1101) were exposed to the genotoxins shown in Table 2, which included alkylating agents, oxidizing agents, ribonucleotide reductase inhibitors, UV mimetic agents, glycopeptide antibiotics, quinoline-based alkaloids and ionizing radiation. Each genotoxin was added directly to a culture of SPY1101. Fresh phleomycin (Sigma) was aliquoted in water at a concentration of 20 mg/ml and stored at −20° C. until culture exposure. Likewise, CPT (Sigma) was aliquoted in dimethylsulfoxide (DMSO) at a concentration of 10 mg/ml and stored at −20° C. until culture exposure. All samples exposed to CPT were adjusted with DMSO, such that the final concentration of DMSO in the culture was 1% (v/v), regardless of CPT dose. γ-ray exposure was done using a Cs^137 source (exposure was 7 Gy/min and ended when the desired dose was reached). For all genotoxins (except γ-ray), exposure was continuous.
All DNA damage experiments included a minimum of three independent trials. SPY1101 were grown in rich medium (see, Sherman, supra) at 30° C. and with gentle shaking at 250 rpm to mid log-phase and then diluted to an OD600 of 0.1. After dilution, the culture was divided into 10 ml aliquots for exposure to one of the DNA damaging agents listed above. One culture aliquot was treated as a control and received no genotoxin, while the other aliquots each received one of seven different doses of the genotoxin, as listed in Table 2. In addition, SPY810 (wild-type control) were similarly treated. All cultures were then returned to 30° C. for incubation.
One hour after exposure, 1 ml of each culture was removed, and the OD600 was recorded to monitor culture growth. The cells were washed in PBS, re-suspended in fresh PBS to an OD600 of 0.2 and then placed in the dark on ice until flow cytometry analysis. This process was repeated every hour until eight hours had passed since the initial genotoxin exposure. The process was also repeated at twenty-four hours after initial genotoxin exposure.
Flow cytometry analysis was conducted as follows. For each replicate, at least 10,000 cells were analyzed for fluorescence using a flow cytometer (Becton Dickinson; Franklin Lakes, N.J.), and GFP induction analysis was performed with CellQuest™ and Flow-Jo software. Surviving cells were defined as whole cells (measured with light scattering) with intact cellular membranes (measured by exclusion of propidium iodide). All surviving cells were gated and used to measure GFP expression of the population. GFP expression histograms were prepared with WinMDI (available on the world wide web), using a live/dead gate based on propidium iodide exclusion. Histograms were created using a smoothing setting of 5.
SPY1101 were also exposed to general cell stress. All general cell stress experiments consisted of a minimum of three independent trials. SPY1101 were grown in rich medium at 30° C. and with gentle shaking at 250 rpm to mid log-phase and then diluted to an OD600 of 0.1. After dilution, the culture was divided into aliquots.

[2] = tested on: SPY1105 (mag1Δ/mre11bΔ, HUG1P-GFP)
Protocol: (§1) Briefly, two hours after exposure, 1 ml of each culture-was removed and the OD600 was recorded to monitor cell proliferation. The cells were then washed in PBS and re-suspended to an OD600 of 0.2, and placed in the dark on ice until flow cytometry analysis. This process was repeated after 4, 6 and 8 hours after exposure.

[3] = tested on: SPY1103 (mre11aΔ, HUG1P-GFP)
Protocol: Yeast having a MRE11 deletion (SPY1103; also called mre11aΔ) were created from SPY1101.
as §1

[4] = tested on: SPY810 (wild-type yeast); assay: Fluorescence of wild-type control yeast SPY810 after genotoxin exposure; format: cell-based, S. cerevisiae; details: 0.01% MMS for six hours
Protocol: In addition, SPY810 (wild-type control) were similarly treated.
Flow cytometry analysis was conducted as follows. […] Histograms were created using a smoothing setting of 5.

[5] = tested on: SPY1102 (mag1Δ, HUG1P-GFP)
Protocol: as §1

[6] = tested on: SPY1103 (mre11aΔ); assay: Viability of SPY1103 after genotoxin exposure; format: cell-based, S. cerevisiae; details: exposed to MMS
[7] = tested on: SPY1102 (mag1Δ); assay: Viability of SPY1102 after genotoxin exposure; format: cell-based, S. cerevisiae; details: after four hours of exposure

Cl [HCl]
maximum induction of GFP fluorescence ([1]; 1, 5, 10 or 15% (v/v) 1 N HCl, positive threshold >2 fold): 1.5 fold

COS(C)(=O)=O [MMS, methyl methanesulfonate]
Relative Fluorescence ([1]; 0.0005% MMS (dose-response)): 4 | increase of fluorescence compared to untreated cells ([1]; 0.0005% MMS, after 6 hours): 2.4 fold | fluorescence upregulation ([1]; 0.005% MMS): 97 fold | optimum (peak) fluorescence ([1]; 0.01% MMS): 1.48 fold | increase of fluorescence (minimum induction time) ([1]; 0.01% MMS, after 75 minutes): 3 fold | Relative Fluorescence ([1]; dose 0.0005%, exposure 6 h): 2.4 | relative fluorescence induction ([2]; 0.005% MMS (peak)): 49 fold | Relative Fluorescence ([2]; dose 0.0001%, exposure 4 h): 2.2 | fluorescence induction at peak fluorescence ([3]; MMS, at its peak fluorescence): 49 fold | Relative Fluorescence ([3]; dose 0.0005%, exposure 6 h): 2.7 | fluorescence of wild type control [4]: did not fluoresce | Relative Fluorescence ([5]; 0.0005% MMS): 34 | peak fluorescence ([5]; 0.005% MMS): 154 fold | Relative Fluorescence ([5]; dose 0.0001%, exposure 4 h): 3.0 | viability compared to SPY1101 [6]: no difference in viability | viability compared to SPY810 or SPY1101 [7]: less viable

C=O [formaldehyde]
dose-dependent GFP expression ([1]; doses of Table 2, up to 24 h): No dose-dependent induction of GFP expression
